Reference: patent publication US10092523B2, “Long acting pharmaceutical compositions” (priority 2014, dated 2018)
Values after ≈ are worked out from the molar mass of the structure shown.

Legend:
HIV [1] = settings: cited from earlier work
HIV [2] = assay: human protein adjusted IC90; type: cell-based; settings: Human immunodeficiency virus 1; reference line in FIG. 1 and FIG. 2

Structure (SMILES) | reduced HIV viral load by a mean of (HIV [1]; patients with trough levels >=20 μg/mL and without key baseline Gag polymorphisms at Q369, V370 or T371) | HIV viral load reduction versus patients without Gag polymorphisms (HIV [1]; users with Gag polymorphisms at Q369, V370 or T371) | IC90 (HIV [2])
C=C(C)[C@@H]1CC[C@]2(C(=O)O)CC[C@]3(C)[C@H](CC[C@@H]4[C@@]5(C)CC[C@H](OC(=O)CC(C)(C)C(=O)O)C(C)(C)[C@@H]5CC[C@]43C)[C@@H]12 [Bevirimat] | 1.3 log10/mL | significantly lower load reductions | –
CC(C)C1=C2[C@H]3CC[C@@H]4[C@@]5(C)CC[C@H](OC(=O)CC(C)(C)C(=O)O)C(C)(C)[C@@H]5CC[C@@]4(C)[C@]3(C)CC[C@@]2([C@@H](O)CN(CCN(C)C)Cc2ccc(Cl)cc2)CC1=O [first compound, 4-(((3aR,5aR,5bR,7aR,9S,11aR,11bR,13aS)-3a-((R)-2-((4-Chlorobenzyl)(2-(dimethylamino)ethyl)amino)-1-hydroxyethyl)-1-isopropyl-5a,5b,8,8,11a-pentamethyl-2-oxo-3,3a,4,5,5a,5b, 6,7,7a,8,9,10,11,11a,11b,12,13,13a-octadecahydro-2H-cyclopenta[a]chrysen-9-yl)oxy)-2,2-dimethyl-4-oxobutanoic acid] | – | – | 4.31 ng/mL (≈ 5.32 nM)
